A word on the EC50: it is the concentration needed to bring the measured effect to its halfway point.

The structures appear in SMILES notation.

The assay deals with recombinant IL4I1 (Homo sapiens (Human), UniProt Q96RQ9). Briefly: IL4I1 Enzymatic Assay (Amplex Red/HRP coupled H2O2 detection). Type of assay: biochemical. Conditions: 1 nM IL4I1, 1 mM each Phe/Tyr/Trp, four-hour pre-incubation, 120 minutes reaction, top compound concentration of 10000 nM. The method, boiled down: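 Recombinant IL4I1 (1 nM final) was pre-incubated 4 h at ambient temperature with compound in 50 mM Hepes pH 7.0, 0.005% Tween20. Reaction ran 120 min with 1 mM each Phe/Tyr/Trp, 0.05 mM Amplex Red and 1 U/mL HRP. Resorufin fluorescence (544/590 nm) was read, and EC50 fitted from ten-point 1:3 titrations (top 10000 nM) by four-parameter regression.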
Chain of recombinant IL4I1 (Q96RQ9 22-567): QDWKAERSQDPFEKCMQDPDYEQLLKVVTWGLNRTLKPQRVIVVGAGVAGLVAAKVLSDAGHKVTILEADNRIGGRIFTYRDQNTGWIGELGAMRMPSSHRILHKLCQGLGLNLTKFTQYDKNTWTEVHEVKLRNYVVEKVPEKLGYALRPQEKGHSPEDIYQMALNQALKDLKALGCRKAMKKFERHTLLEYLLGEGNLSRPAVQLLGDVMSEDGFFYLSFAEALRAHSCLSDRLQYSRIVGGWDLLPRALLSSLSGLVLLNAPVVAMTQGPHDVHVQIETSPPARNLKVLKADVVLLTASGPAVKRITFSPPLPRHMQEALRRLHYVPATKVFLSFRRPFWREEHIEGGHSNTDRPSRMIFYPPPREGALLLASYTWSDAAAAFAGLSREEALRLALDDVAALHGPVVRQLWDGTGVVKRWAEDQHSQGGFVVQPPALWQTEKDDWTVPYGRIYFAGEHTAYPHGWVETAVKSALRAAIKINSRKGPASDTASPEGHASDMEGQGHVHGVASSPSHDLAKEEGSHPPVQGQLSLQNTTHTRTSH
Take `O=C1CC(Cc2nnc(Cc3cc4ccccc4[nH]c3=O)o2)CC(=O)N1` [Example 37, 4-((5-((2-oxo-1,2-dihydroquinolin-3-yl)methyl)-1,3,4-oxadiazol-2-yl)methyl)piperidine-2,6-dione]: the EC50 worked out at 138 nM. As to `CC1(N)CN(c2ccc(Cc3cc4ccccc4[nH]c3=O)cc2)C1` [compound 60, 3-(4-(3-amino-3-methylazetidin-1-yl)benzyl)quinolin-2(1H)-one], the EC50 was found to be 19.9 nM. To `O=c1[nH]c2ccncc2cc1Cc1ccc(C2(O)CCC2)cc1` [Example 113, 3-(4-(1-hydroxycyclobutyl)benzyl)-1,6-naphthyridin-2(1H)-one] belongs 7 nM.

Consider `Cc1cc(Cc2cc3ccccc3[nH]c2=O)cnc1-c1cccc(F)c1` [Example 131, 3-((6-(3-fluorophenyl)-5-methylpyridin-3-yl)methyl)quinolin-2(1H)-one], for which the EC50 was found to be 3.7 nM.

Turning to `O=c1[nH]c2ccccc2cc1Cc1cnn(CC2(C(F)F)CC2)c1` [Example 111, 3-((1-((1-(difluoromethyl)cyclopropyl)methyl)-1H-pyrazol-4-yl)methyl)quinolin-2(1H)-one], the EC50 was 24.6 nM. To `N#Cc1n[nH]c2ccc(Cc3cc4cnccc4[nH]c3=O)cc12` [Example 95, 5-((2-oxo-1,2-dihydro-1,6-naphthyridin-3-yl)methyl)-1H-indazole-3-carbonitrile] belongs 2.5 nM; to `O=C1CCC(c2ccc(Cc3cc4ccccc4[nH]c3=O)cc2Cl)N1` (centres unmarked) [Example 181, 3-(3-chloro-4-(5-oxopyrrolidin-2-yl)benzyl)quinolin-2(1H)-one], 2.5 nM. For the compound `Cc1cnc(-c2nnc(Cc3cc4ccccc4[nH]c3=O)o2)s1` [Example 22, 3-((5-(5-methylthiazol-2-yl)-1,3,4-oxadiazol-2-yl)methyl)quinolin-2(1H)-one], the EC50 came to 203 nM. To `N#Cc1cn[nH]c1-c1nnc(Cc2cc3ccccc3[nH]c2=O)o1` [Example 41, 5-(5-((2-oxo-1,2-dihydroquinolin-3-yl)methyl)-1,3,4-oxadiazol-2-yl)-1H-pyrazole-4-carbonitrile] belongs 13.4 nM; to `Cc1nnc(Cc2cc3ccccc3[nH]c2=O)o1` [Example 20, 3-((5-methyl-1,3,4-oxadiazol-2-yl)methyl)quinolin-2(1H)-one], 624 nM. Take `CC(=O)c1cccc(Cc2cc3ccccc3[nH]c2=O)c1` [Example 86, 3-(3-acetylbenzyl)quinolin-2(1H)-one]: the EC50 was 0.9 nM. For `N#Cc1ccc(F)c(-c2nnc(Cc3cc4ccccc4[nH]c3=O)o2)c1` [Example 33, 4-fluoro-3-(5-((2-oxo-1,2-dihydroquinolin-3-yl)methyl)-1,3,4-oxadiazol-2-yl)benzonitrile] the value was 65.3 nM. To `O=c1[nH]c2ncccc2cc1Cc1cccc(OC(F)(F)F)c1` [Example 106, 3-(3-(trifluoromethoxy)benzyl)-1,8-naphthyridin-2(1H)-one] belongs 958 nM; to `O=c1[nH]c2ccccc2cc1Cc1nnc(-c2cccc(C(F)(F)F)c2)o1` [Example 10, 3-((5-(3-(trifluoromethyl)phenyl)-1,3,4-oxadiazol-2-yl)methyl)quinolin-2(1H)-one], 7.6 nM; to `C[C@@H]1Oc2ccc(Cc3cc4ccccc4[nH]c3=O)cc2NC1=O` (stereo in doubt) [Example 142B, 2-methyl-6-((2-oxo-1,2-dihydroquinolin-3-yl)methyl)-2H-benzo[b][1,4]oxazin-3(4H)-one], 81.4 nM. To `COC(=O)Nc1ccc(Cc2cc3ccccc3[nH]c2=O)cc1` [Example 119, methyl (4-((2-oxo-1,2-dihydroquinolin-3-yl)methyl)phenyl)carbamate] belongs 16 nM. Take `O=c1[nH]c2ccccc2cc1Cc1cnc(-c2ccc(F)cc2)o1` [Example 138, 3-((2-(4-fluorophenyl)oxazol-5-yl)methyl)quinolin-2(1H)-one]: the EC50 is 36.9 nM. `O=c1[nH]c2ccccc2cc1Cc1nnc(Cc2ccc(Br)cc2)o1` [Example 23, 3-((5-(4-bromobenzyl)-1,3,4-oxadiazol-2-yl)methyl)quinolin-2(1H)-one]: the EC50 came to 126 nM.

Take `O=c1[nH]c2ccccc2cc1Cc1ccc2ncccc2c1` [Example 152, 3-(Quinolin-6-ylmethyl)quinolin-2(1H)-one]: the EC50 was 5.3 nM. To `CC(O)C(C#N)c1ccc(Cc2cc3ccccc3[nH]c2=O)cc1` (single isomer, unassigned) [Example 102C, 3-hydroxy-2-(4-((2-oxo-1,2-dihydroquinolin-3-yl)methyl)phenyl)butanenitrile] belongs 11.8 nM; to `O=C1NCc2cc(F)c(Cc3cc4ccccc4[nH]c3=O)cc21` [Example 87, 3-((6-fluoro-3-ixoisoindolin-5-yl)methyl)quinolin-2(1H)-one], 4.2 nM; to `O=c1[nH]c2ccccc2cc1Cc1ccc(N2CCNCC2)cc1` [Example 59, 3-(4-(piperazin-1-yl)benzyl)quinolin-2(1H)-one], 23.6 nM.

Take `CC(=O)NCc1ncc(Cc2cc3ccccc3[nH]c2=O)cc1F` [Example 82]: the EC50 stood at 10 nM. To `O=c1[nH]c2ccccc2cc1Cc1ccc(-c2cnccn2)c(F)c1` [Example 127, 3-(3-fluoro-4-(pyrazin-2-yl)benzyl)quinolin-2(1H)-one] belongs 2.1 nM; to `CC1(O)CN(C(=O)c2ccc(Cc3cc4ccccc4[nH]c3=O)cc2)C1` [compound 2, 3-(4-(3-hydroxy-3-methylazetidine-1-carbonyl)benzyl)-quinolin-2(1H)-one], 34.8 nM; to `O=C1COc2c(Cc3cc4ccccc4[nH]c3=O)cccc2N1` [Example 122, 8-((2-oxo-1,2-dihydroquinolin-3-yl)methyl)-2H-benzo[b][1,4]oxazin-3(4H)-one], 6.6 nM.

The values are drawn from patent US20240287022A1 (Merck Sharp & Dohme LLC, priority 2021, published 2024).
